One experiment concerns the target His-Brd4(44-477) (Homo sapiens (Human), UniProt O60885). In words: TR-FRET in-vitro binding assay for BRD4. To be noted: biochemical. The procedure, abridged:
(§1)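 His-tagged BRD2(60-472), BRD3(20-477) or BRD4(44-477), 45 nM in dispensing solution, with 60 nM tetra-acetylated histone H4 peptide (AcK5/8/12/16) in dispensing solution; HEPES pH 7.5, 50 mM NaCl, 0.1% BSA, 30 °C, 35 min. Eu-anti-His6 antibody plus streptavidin-APC added for TR-FRET read-out; 8-point compound dilutions.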

In another experiment the target is His-Brd2(60-472) (Homo sapiens (Human), UniProt P25440). In words: TR-FRET in-vitro binding assay for BRD2. Particulars: biochemical. The procedure, abridged:
as §1
Background: TR-FRET usually uses a lanthanide donor and a delayed reading to cut background.

The next experiment deals with K-562 cells. In words: Cell growth inhibition assay (CellTiter-Glo), K-562. The format is cell-based, human. To be noted: Homo sapiens, K562, read-out: K-562 TGI. The procedure, abridged:
(§2)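 Compounds tested as 3-fold dilution series starting at 10 μM (DMSO 0.1% final); viability read by cellular ATP (CTG luminescence) at 37° C. Signal corrected for no-cell background and a day-0 plate, scaled −100% to 100%; four-parameter fitting gives IC50 and TGI.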
Background: In ATP-based viability assays light output follows the ATP content of the culture.

For experiment [1], the target named is His-CREBBP (1081-1197) bromodomain (Homo sapiens (Human), UniProt Q92793). In words: AlphaScreen in-vitro binding assay for CREBBP. To be noted: biochemical. In short, it runs like this: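 Ni-chelate acceptor and streptavidin donor beads (45 µg/mL each, in 50 mM HEPES pH 7.5, 150 mM NaCl, 0.02% BSA) were then added for 60 min at room temperature. IC50 came from 8-point non-linear regression.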
Chain of His-CREBBP (1081-1197) bromodomain (Q92793 1081-1197): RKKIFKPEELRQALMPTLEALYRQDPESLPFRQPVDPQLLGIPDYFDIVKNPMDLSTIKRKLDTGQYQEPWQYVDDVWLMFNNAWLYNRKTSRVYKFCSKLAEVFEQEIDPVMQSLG
Background: Bead proximity is the source of the signal in Alpha formats.

The next experiment has as its system THP-1 cells. Briefly: Cell growth inhibition assay (CellTiter-Glo), THP-1. The format is cell-based. To be noted: Homo sapiens, read-out: THP-1 TGI. The procedure, abridged:
as §2

The next experiment relates to MV-4-11 cells. In words: Cell growth inhibition assay (CellTiter-Glo), MV-4-11. Format: cell-based. To be noted: Homo sapiens, MV4-11, read-out: MV-4-11 TGI. In short, it runs like this: as §2
Another experiment concerns the target His-Brd3(20-477) (Homo sapiens (Human), UniProt Q15059). In words: TR-FRET in-vitro binding assay for BRD3. To be noted: biochemical. The procedure, abridged: as §1

pIC50: −log10 of the molar value.

Chain of His-Brd3(20-477) (Q15059 20-477): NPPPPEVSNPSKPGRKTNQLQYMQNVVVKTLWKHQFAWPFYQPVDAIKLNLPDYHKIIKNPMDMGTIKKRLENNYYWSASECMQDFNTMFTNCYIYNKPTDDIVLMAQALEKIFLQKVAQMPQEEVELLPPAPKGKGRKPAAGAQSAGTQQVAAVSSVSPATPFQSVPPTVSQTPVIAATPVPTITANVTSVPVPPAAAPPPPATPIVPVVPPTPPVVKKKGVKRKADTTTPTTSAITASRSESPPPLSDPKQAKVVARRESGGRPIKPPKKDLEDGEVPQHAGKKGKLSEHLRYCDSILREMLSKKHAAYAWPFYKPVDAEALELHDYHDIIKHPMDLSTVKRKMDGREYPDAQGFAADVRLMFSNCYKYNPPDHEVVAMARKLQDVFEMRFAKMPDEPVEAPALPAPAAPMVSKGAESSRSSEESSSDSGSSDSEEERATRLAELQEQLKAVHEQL
Chain of His-Brd2(60-472) (P25440 60-472): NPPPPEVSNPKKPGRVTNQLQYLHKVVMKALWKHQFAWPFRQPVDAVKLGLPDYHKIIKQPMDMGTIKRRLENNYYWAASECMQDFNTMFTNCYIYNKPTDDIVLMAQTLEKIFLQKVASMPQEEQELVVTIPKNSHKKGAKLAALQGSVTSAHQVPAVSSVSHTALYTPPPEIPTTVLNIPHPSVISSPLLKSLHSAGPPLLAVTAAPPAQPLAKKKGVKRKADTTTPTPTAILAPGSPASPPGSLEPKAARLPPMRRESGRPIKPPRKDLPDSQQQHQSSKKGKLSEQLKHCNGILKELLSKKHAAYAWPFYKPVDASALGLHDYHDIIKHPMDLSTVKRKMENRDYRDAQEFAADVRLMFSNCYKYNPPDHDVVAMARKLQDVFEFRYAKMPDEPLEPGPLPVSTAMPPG

For the compound `COc1ncccc1-n1nc(C)c2c1C(=O)N(c1cc(C)c3nnc(C)n3c1)C2c1ccc(F)cc1F` (centres unmarked) [Example 173, 4-(2,4-difluorophenyl)-5-(3,8-dimethyl-[1,2,4]triazolo[4,3-a]pyridin-6-yl)-1-(2-methoxypyridin-3-yl)-3-methyl-4,5-dihydropyrrolo[3,4-c]pyrazol-6(1H)-one], the pIC50 (as a rule, −log10 of the IC50, conventionally taken in molar units) at His-Brd4(44-477) was 7.24; on His-Brd2(60-472), 7.10; in experiment [1], under 4.43; on His-Brd3(20-477) it was 7.06. Besides, the IC (total growth inhibition) in the experiment with K-562 cells was over 10 µM; in the experiment on THP-1 cells, 0.282 µM; with MV-4-11 cells it was 0.139 µM.

Regarding `COc1ncccc1-n1nc2c(c1C)C(c1ccc(Cl)cc1F)N(c1cc(C)c3nnc(C)n3c1)C2=O` (centres unmarked) [Example 194, 4-(4-chloro-2-fluorophenyl)-5-(3,8-dimethyl-[1,2,4]triazolo[4,3-a]pyridin-6-yl)-2-(2-methoxypyridin-3-yl)-3-methyl-4,5-dihydropyrrolo[3,4-c]pyrazol-6(2H)-one], the pIC50 was 7.35 at His-Brd4(44-477), 7.05 on His-Brd2(60-472), 5.28 in experiment [1] and 7.19 at His-Brd3(20-477). The IC (total growth inhibition) with K-562 cells was over 10 µM; in the experiment with THP-1 cells, 0.174 µM; in the experiment with MV-4-11 cells, 0.0936 µM.

With `Cc1nn(C(C)C)c2c1C(c1ccc(Cl)cc1F)N(c1cc(C)c3nnc(C)n3c1)C2=O` (centres unmarked) [Example 168, 4-(4-chloro-2-fluorophenyl)-5-(3,8-dimethyl-[1,2,4]triazolo[4,3-a]pyridin-6-yl)-1-isopropyl-3-methyl-4,5-dihydropyrrolo[3,4-c]pyrazol-6(1H)-one], the pIC50 was 7.23 at His-Brd4(44-477), 7.15 at His-Brd2(60-472), 4.96 in experiment [1] and 7.52 at His-Brd3(20-477). The IC (total growth inhibition) in the experiment on K-562 cells was over 10 µM; in the experiment on THP-1 cells it was 0.0949 µM; in the experiment on MV-4-11 cells, 0.0403 µM.

For the compound `COc1ncc(-n2nc3c(c2C)C(c2ccc(Cl)cc2)N(c2cc(C)c(=O)n(C)c2)C3=O)c(OC)n1` (centres unmarked) [Example 56, 4-(4-chlorophenyl)-2-(2,4-dimethoxypyrimidin-5-yl)-5-(1,5-dimethyl-6-oxo-1,6-dihydropyridin-3-yl)-3-methyl-4,5-dihydropyrrolo[3,4-c]pyrazol-6(2H)-one], the pIC50 on His-Brd4(44-477) is 7.02; on His-Brd2(60-472), 7.16; in experiment [1], 6.25; on His-Brd3(20-477), 7.21. Moreover, the IC (total growth inhibition) in the experiment with K-562 cells is over 10 µM; with THP-1 cells, 0.124 µM; in the experiment with MV-4-11 cells, 0.0981 µM.

Consider `Cc1[nH]nc2c1C(c1ccc(Cl)cc1)N(c1cc(C)c(=O)n(C)c1)C2=O` (centres unmarked) [Example 27, 4-(4-chlorophenyl)-5-(1,5-dimethyl-6-oxo-1,6-dihydropyridin-3-yl)-3-methyl-4,5-dihydropyrrolo[3,4-c]pyrazol-6(2H)-one], for which the pIC50 on His-Brd4(44-477) is 7.02; on His-Brd2(60-472), 6.51; in experiment [1], 5.42; at His-Brd3(20-477), 6.74. The values for the IC (total growth inhibition) in the experiment on K-562 cells, in the experiment with THP-1 cells and in the experiment on MV-4-11 cells were over 10 µM, 0.363 µM and 0.158 µM, respectively.

For the compound `Cc1n[nH]c2c1[C@@H](c1ccc(Cl)cc1)N(c1cc(C)c3nnc(C)n3c1)C2=O` [Example 165, (R)-4-(4-chlorophenyl)-5-(3,8-dimethyl-[1,2,4]triazolo[4,3-a]pyridin-6-yl)-3-methyl-4,5-dihydropyrrolo[3,4-c]pyrazol-6(1H)-one], the pIC50 on His-Brd4(44-477) was 7.82; at His-Brd2(60-472), 7.77; in experiment [1], 5.34; on His-Brd3(20-477) it was 7.64. For the same compound, the IC (total growth inhibition) in the experiment on K-562 cells is over 10 µM; in the experiment on THP-1 cells, 0.0921 µM; in the experiment on MV-4-11 cells it was 0.0396 µM.

Regarding `Cc1cc(N2C(=O)c3nn(C(C)C)c(C)c3C2c2ccc(F)cc2F)cn2c(C)nnc12` (centres unmarked) [Example 175, 4-(2,4-difluorophenyl)-5-(3,8-dimethyl-[1,2,4]triazolo[4,3-a]pyridin-6-yl)-2-isopropyl-3-methyl-4,5-dihydropyrrolo[3,4-c]pyrazol-6(2H)-one], the pIC50 at His-Brd4(44-477) is 7.47; on His-Brd2(60-472), 7.14; in experiment [1], 4.89; on His-Brd3(20-477), 7.43. In addition, the results for the IC (total growth inhibition) in the experiment on K-562 cells, with THP-1 cells and in the experiment on MV-4-11 cells were over 10 µM, 0.131 µM and 0.0867 µM, respectively.

Consider `COc1nccc(-n2nc(C)c3c2C(=O)N(c2cc(C)c(=O)n(C)c2)C3c2ccc(Cl)cc2)n1` (centres unmarked) [Example 59, 4-(4-chlorophenyl)-5-(1,5-dimethyl-6-oxo-1,6-dihydropyridin-3-yl)-1-(2-methoxypyrimidin-4-yl)-3-methyl-4,5-dihydropyrrolo[3,4-c]pyrazol-6(1H)-one], for which the negative logarithm of the IC50 (pIC50) on His-Brd4(44-477) is 6.41; at His-Brd2(60-472), 6.21; in experiment [1], 5.14; at His-Brd3(20-477), 6.32. In addition, the IC (total growth inhibition) in the experiment on K-562 cells was over 10 µM; in the experiment with THP-1 cells, 0.598 µM; in the experiment with MV-4-11 cells, 0.325 µM.

For the compound `Cc1nn(C2CC2)c2c1C(c1ccc(F)cc1F)N(c1cc(C)c3nnc(C)n3c1)C2=O` (centres unmarked) [Example 176, 1-cyclopropyl-4-(2,4-difluorophenyl)-5-(3,8-dimethyl-[1,2,4]triazolo[4,3-a]pyridin-6-yl)-3-methyl-4,5-dihydropyrrolo[3,4-c]pyrazol-6(1H)-one], the pIC50 at His-Brd4(44-477) is 7.00; at His-Brd2(60-472), 6.92; in experiment [1] it was under 4.43; on His-Brd3(20-477), 7.05. In addition, the values for the IC (total growth inhibition) with K-562 cells, with THP-1 cells and in the experiment on MV-4-11 cells were over 10 µM, 0.106 µM and 0.0631 µM, respectively.

For the compound `CCn1nc2c(c1C)C(c1ccc(Cl)cc1F)N(c1cc(C)c(=O)n(C)c1)C2=O` (centres unmarked) [Example 171, 4-(4-chloro-2-fluorophenyl)-5-(1,5-dimethyl-6-oxo-1,6-dihydropyridin-3-yl)-2-ethyl-3-methyl-4,5-dihydropyrrolo[3,4-c]pyrazol-6(2H)-one], the pIC50 was 6.85 on His-Brd4(44-477), 6.85 at His-Brd2(60-472), 5.82 in experiment [1] and 7.03 on His-Brd3(20-477). Moreover, the IC (total growth inhibition) was over 10 µM in the experiment with K-562 cells, 0.297 µM with THP-1 cells and 0.174 µM with MV-4-11 cells.

Consider `CCc1nn(C2CC2)c2c1C(c1ccc(Cl)cc1)N(c1cc(C)c(=O)n(C)c1)C2=O` (centres unmarked) [Example 69], for which the pIC50 is 7.57 on His-Brd4(44-477), 7.59 at His-Brd2(60-472), 5.39 in experiment [1] and 7.55 on His-Brd3(20-477). Further, the values for the IC (total growth inhibition) in the experiment on K-562 cells, in the experiment with THP-1 cells and with MV-4-11 cells were over 10 µM, 0.0983 µM and 0.0466 µM, respectively.

Consider `Cc1cc(N2C(=O)c3c(c(CO)nn3C3CC3)[C@H]2c2ccc(Cl)cc2)cn2c(C)nnc12` [Example 166, (R)-4-(4-chlorophenol)-1-cyclopropyl-5-(3,8-dimethyl-[1,2,4]triazolo[4,3-a]pyridin-6-yl)-3-(hydroxymethyl)-4,5-dihydropyrrolo[3,4-c]pyrazol-6(1H)-one], for which the pIC50 on His-Brd4(44-477) is over 7.96; at His-Brd2(60-472), 7.80; in experiment [1], 4.85; at His-Brd3(20-477), 7.89. The results for the IC (total growth inhibition) in the experiment on K-562 cells, in the experiment on THP-1 cells and in the experiment with MV-4-11 cells were over 10 µM, 0.0539 µM and 0.0262 µM, respectively.

For the compound `COc1ncc(-n2nc3c(c2C(C)C)C(c2ccc(Cl)cc2)N(c2cc(C)c4onc(C)c4c2)C3=O)c(OC)n1` (centres unmarked) [Example 46, 4-(4-chlorophenyl)-2-(2,4-dimethoxypyrimidin-5-yl)-5-(3,7-dimethylbenzo[d]-isoxazol-5-yl)-3-isopropyl-4,5-dihydropyrrolo[3,4-c]pyrazol-6(2H)-one], the pIC50 on His-Brd4(44-477) is 7.06; at His-Brd2(60-472), 6.89; in experiment [1], 5.33; at His-Brd3(20-477) it was 7.00. In addition, the IC (total growth inhibition) was over 10 µM in the experiment with K-562 cells, 0.323 µM in the experiment on THP-1 cells and 0.166 µM in the experiment with MV-4-11 cells.

For the compound `Cc1nn(C)c2c1C(c1ccc(Cl)cc1)N(c1cc(Cl)c(=O)n(C)c1)C2=O` (centres unmarked) [Example 58, 5-(5-chloro-1-methyl-6-oxo-1,6-dihydropyridin-3-yl)-4-(4-chlorophenyl)-1,3-dimethyl-4,5-dihydropyrrolo[3,4-c]pyrazol-6(1H)-one], the pIC50 on His-Brd4(44-477) is 6.39; on His-Brd2(60-472), 6.25; in experiment [1], 5.09; on His-Brd3(20-477), 6.54. The figures for the IC (total growth inhibition) in the experiment on K-562 cells, in the experiment with THP-1 cells and in the experiment on MV-4-11 cells were over 10 µM, 0.38 µM and 0.157 µM, respectively.

Source of the values: patent US8975417B2, “Pyrazolopyrrolidine derivatives and their use in the treatment of disease” (Novartis AG, priority 2013, dated 2015).
